pIC50: −log10 of the molar value. “And” between values parts separate entries of the source, which are not always exact repeats. Equal entries are not always repeated. “Also recorded” adds a separate entry of the source.
Key:
15-LO = assay: 15-HETE formation in intact PMNL; details: intact PMNL, 20 µM AA, 2.5 µM A23187, (95% CI), n = 3–6; for pIC50: read-out: IC50 for inhibition of 15-HETE formation, PMNL
U2OS cells [1] = details: human, 10 µM
5-LO [2] = molecular target: T1, 5-LO (Homo sapiens, UniProt P09917); assay: 5-LO product formation in intact PMNL
T1 sequence (P09917 1-674): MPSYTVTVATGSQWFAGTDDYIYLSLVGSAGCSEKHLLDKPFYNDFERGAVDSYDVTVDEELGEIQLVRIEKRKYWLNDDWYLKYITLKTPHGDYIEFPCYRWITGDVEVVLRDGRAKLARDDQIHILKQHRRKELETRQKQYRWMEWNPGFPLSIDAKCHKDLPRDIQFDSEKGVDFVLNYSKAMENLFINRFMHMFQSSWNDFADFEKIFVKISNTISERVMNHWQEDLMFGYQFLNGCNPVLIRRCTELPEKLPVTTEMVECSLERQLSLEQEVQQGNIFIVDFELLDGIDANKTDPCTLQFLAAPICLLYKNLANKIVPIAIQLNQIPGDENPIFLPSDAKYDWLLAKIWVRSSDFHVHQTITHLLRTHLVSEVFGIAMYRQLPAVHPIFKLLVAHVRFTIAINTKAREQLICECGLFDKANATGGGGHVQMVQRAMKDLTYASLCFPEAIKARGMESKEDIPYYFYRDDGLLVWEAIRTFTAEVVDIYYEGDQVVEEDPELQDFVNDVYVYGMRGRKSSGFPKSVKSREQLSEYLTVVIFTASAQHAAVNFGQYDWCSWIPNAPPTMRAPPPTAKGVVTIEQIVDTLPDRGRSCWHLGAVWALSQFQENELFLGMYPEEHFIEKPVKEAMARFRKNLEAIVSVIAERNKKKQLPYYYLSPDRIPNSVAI

r5-LO_4C = molecular target: T2, r5-LO_4C (Homo sapiens, UniProt P09917, C160S/C301S/C417S/C419S); assay: Covalent inhibitor binding by mass spectrometry, r5-LO_4C; details: 20 µM protein, 100 µM compound, at least 1 h RT
T2 construct: made in house; host or cells: E. coli BL21 (DE3)
T2 sequence (P09917 2-674 C160S/C301S/C417S/C419S limits assumed): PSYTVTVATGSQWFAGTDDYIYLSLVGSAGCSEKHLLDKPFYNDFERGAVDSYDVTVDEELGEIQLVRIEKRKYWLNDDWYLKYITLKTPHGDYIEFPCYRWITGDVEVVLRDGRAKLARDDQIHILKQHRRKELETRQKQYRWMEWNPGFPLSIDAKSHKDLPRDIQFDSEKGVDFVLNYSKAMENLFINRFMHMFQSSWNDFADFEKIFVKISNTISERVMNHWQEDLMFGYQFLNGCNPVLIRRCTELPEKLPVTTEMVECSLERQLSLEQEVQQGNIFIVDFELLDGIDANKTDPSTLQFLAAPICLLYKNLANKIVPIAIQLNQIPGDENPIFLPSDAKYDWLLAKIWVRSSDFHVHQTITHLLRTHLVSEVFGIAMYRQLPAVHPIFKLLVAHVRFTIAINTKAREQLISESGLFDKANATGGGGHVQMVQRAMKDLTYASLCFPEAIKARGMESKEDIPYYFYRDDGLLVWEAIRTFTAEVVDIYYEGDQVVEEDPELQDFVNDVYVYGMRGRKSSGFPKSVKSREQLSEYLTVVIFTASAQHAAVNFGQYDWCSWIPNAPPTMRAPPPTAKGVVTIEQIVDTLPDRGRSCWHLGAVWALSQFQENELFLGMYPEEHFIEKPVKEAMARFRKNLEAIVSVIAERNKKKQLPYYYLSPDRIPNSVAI
Protocol: r5-LO_WT or r5-LO_4C protein was diluted to 20 µM in gel filtration buffer; 100 µM of compound was added and incubated for a minimum time of 1 h at RT before 10 µL was injected onto a 1260 Infinity HPLC (Agilent, Santa Clara, USA) using a C3 column with a flow rate of 0.4 mL/min as published before. The HPLC was coupled with a 6230 electrospray ionization TOF LC/MS detector (Agilent, Santa Clara, CA, USA). Data were acquired using the Agilent MassHunter Acquisition software and processed with the Agilent Mass Hunter BioConfirm software (B.08.00). Peak intensities were calculated and normalized to the highest count of each data set with GraphPad Prism version 7.05 (GraphPad Software, Boston, MA, USA).
Fig. 3 Mass spectra of r5-LO_WT or r5-LO_4C incubated with inhibitors (blue or red line). 20 µM r5-LO_WT (left) or r5-LO_4C (right) was incubated with 100 µM degrasyn (A), AG556 (B), tyrphostin A9 (C), AG879 (D), or CAPE (E) at RT for at least 1 h before analysis. Measurement was performed using an Agilent 1260 Infinity HPLC with an Agilent 6230 TOF LC/MS detector. Obtained data were processed using Mass Hunter BioConfirm (B.08.00), and resulted counts were normalized to the highest peak of the spectrum

r5-LO_WT = molecular target: T3, r5-LO_WT (Homo sapiens, UniProt P09917); assay: Covalent inhibitor binding by mass spectrometry, r5-LO_WT; details: 100 µM compound; for inhibitor adducts to r5-LO_WT detected by mass spectrometry: 20 µM protein, at least 1 h RT; for mass shift of inhibitor adduct: 20 µM r5-LO_WT
T3 construct: made in house; host or cells: E. coli BL21 (DE3)
T3 sequence (P09917 1-674): T1 sequence (P09917 1-674)

12-LO = molecular target: T4, 12-LO (Homo sapiens, UniProt P18054); assay: 12-HETE formation in platelets; details: 20 µM AA, 2.5 µM A23187, n = 3–6
T4 sequence (P18054 1-663): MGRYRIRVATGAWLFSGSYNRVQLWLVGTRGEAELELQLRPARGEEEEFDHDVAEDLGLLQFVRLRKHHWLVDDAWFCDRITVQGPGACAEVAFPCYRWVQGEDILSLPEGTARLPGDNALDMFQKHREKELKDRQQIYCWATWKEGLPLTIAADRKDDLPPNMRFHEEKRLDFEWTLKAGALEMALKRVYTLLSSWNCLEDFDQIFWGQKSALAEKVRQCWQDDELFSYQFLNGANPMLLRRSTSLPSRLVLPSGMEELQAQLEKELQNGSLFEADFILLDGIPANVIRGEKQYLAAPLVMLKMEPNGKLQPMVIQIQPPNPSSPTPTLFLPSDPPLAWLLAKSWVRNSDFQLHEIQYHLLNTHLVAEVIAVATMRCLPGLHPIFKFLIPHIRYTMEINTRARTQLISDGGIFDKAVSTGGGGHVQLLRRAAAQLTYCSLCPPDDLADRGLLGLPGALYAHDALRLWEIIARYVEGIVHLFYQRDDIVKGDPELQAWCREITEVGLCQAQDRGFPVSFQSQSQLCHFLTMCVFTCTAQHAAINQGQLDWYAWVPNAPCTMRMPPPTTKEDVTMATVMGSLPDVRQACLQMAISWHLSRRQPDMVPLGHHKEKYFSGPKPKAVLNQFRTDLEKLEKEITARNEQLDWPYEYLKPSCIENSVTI

Her2/ErbB2 = tested on: Her2/ErbB2; design: method as in PMID 7892601; details: original target of AG879; cited from earlier work
5-LO [3] = molecular target: T1, 5-LO; assay: 5-LO activity in PMNL homogenates; type: biochemical; design: endogenous in cells; host or cells: human PMNL (polymorphonuclear leukocytes); details: sonicated PMNL, 20 µM AA
Protocol: Samples were kept on ice, and 1 mM ATP or 1 mM ATP/1 mM GSH was added. The inhibitors were preincubated with the cell homogenate on ice for 15 min before heating the samples at 37 °C for 30 s. […] Solid phase extraction and UPLC analysis were performed as described above.

U2OS cells [4] = assay: Multiplex live-cell high-content assay; details: 10 µM, 48 h

Row | pIC50 (5-LO [2]; IC50 for inhibition of 5-LO product formation, PMNL, intact PMNL, 20 µM AA, 2.5 µM A23187, (95% CI), n = 3–6) | SMILES | pIC50 (15-LO) | normalized healthy cell count (U2OS cells [1]) | pIC50 (5-LO [2]) | inhibitor adducts to r5-LO_4C detected by mass spectrometry (r5-LO_4C) | inhibitor adducts to r5-LO_WT detected by mass spectrometry (r5-LO_WT) | mass shift of inhibitor adduct (r5-LO_WT) | IC50 for inhibition of 12-HETE formation, platelets (12-LO) | pIC50 (Her2/ErbB2) | pIC50 (5-LO [3]; with 1 mM GSH, read-out: IC50 5-LO, PMNL homogenates + GSH) | pIC50 (5-LO [3]; without GSH, read-out: IC50 5-LO, PMNL homogenates) | IC50 for inhibition of 15-HETE formation, PMNL (15-LO) | increase of mitochondrial mass (U2OS cells [1]; 48 h) | phenotypic properties (tubulin, mitochondrial mass, membrane permeability, cell morphology) (U2OS cells [4])
1 | – | N#C/C(=C\c1ccc(O)c(O)c1)C(=O)NCCCCc1ccccc1 [AG556] | 5.29 | around 75% | 6.47 | only one adduct | covalently bound to up to four cysteines; also recorded: four peaks | 336 Da | no inhibition | – | – | – | – | – | –
2 | 6.40 and 6.38 | CC(C)(C)c1cc(/C=C(\C#N)C(N)=S)cc(C(C)(C)C)c1O [AG879] | < 4.60 | around 75% | – | – | did not detect mass shifts | – | no inhibition | 6.00 | – | – | – | – | –
3 | – | CCC[C@H](NC(=O)/C(C#N)=C/c1cccc(Br)n1)c1ccccc1 [Degrasyn] | 5.10 | below 50% | 6.21 | only one adduct | covalently bound to up to four cysteines; also recorded: four peaks | 384 Da | no inhibition | – | 5.38 | 6.05 | moderate inhibition | more than 50% | additional effects on microtubules and on membrane integrity
